Here are results for two compounds from publication PMC11418391, “Benzenesulfonohydrazide-tethered non-fused and fused heterocycles as potential anti-mycobacterial agents targeting enoyl acyl carrier protein reductase (InhA) with antibiofilm activity” (RSC Advances, 2024).

For orientation: IC50 means the concentration needed to halve the response being measured. Read a low IC50 as greater potency.

This assay deals with Enoyl acyl carrier protein (ACP) reductase (InhA) (Mycobacterium tuberculosis, UniProt P9WGR1). The assay is described as follows: colorimetric InhA assay, NADH oxidation at […] nm with 2-trans-octanoyl-CoA. Format: biochemical.
Chain of Enoyl acyl carrier protein (ACP) reductase (InhA) (P9WGR1 whole entry, looked up): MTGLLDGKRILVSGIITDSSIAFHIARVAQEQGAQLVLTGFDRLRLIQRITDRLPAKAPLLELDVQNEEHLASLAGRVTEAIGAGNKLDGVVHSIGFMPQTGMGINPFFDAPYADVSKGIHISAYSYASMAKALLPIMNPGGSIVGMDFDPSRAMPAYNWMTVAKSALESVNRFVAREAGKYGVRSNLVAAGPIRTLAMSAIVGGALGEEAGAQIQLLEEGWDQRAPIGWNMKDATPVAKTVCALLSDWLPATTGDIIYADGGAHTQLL

Regarding `C/C(=N\NS(=O)(=O)c1ccc(C)cc1)c1c(O)c2ccccc2oc1=O` [compound 3], the IC50 was found to be 1620 ± 690 nM.

Compound `CC(=NNS(=O)(=O)c1ccc(C)cc1)c1ccccn1` [compound 7] had an IC50 of 910 ± 30 nM.
